From ChEMBL document CHEMBL1157290, “Bioactive isomalabaricane triterpenoids from Rhabdastrella globostellata that stabilize the binding of DNA polymerase beta to DNA” (2006)
Activity calls are given as the source filed them. The rule behind the calls is not given here. *1 amine or outer side, *2 acyl side, *3 side chain or, on linkers, in order; H or OH if unused. Where a SMILES comes first, the peptide text is derived from it. Bridges are numbered along the chain shown (N, C = ends). Roman numbers before positions name the chains, in order. [ ]: non-standard residue; d: D form. Actinocin(1to9) = Cc1c2oc3c(C)ccc(C(=O)[*:2])c3nc-2c(C(=O)[*:1])c(N)c1=O; NMeV = CN[C@H](C(=O)O)C(C)C; Sar = CNCC(=O)O

How the values were obtained:
[1] = organism: Rattus norvegicus; assay: Stabilization of rat DNA polymerase binding to DNA by gel mobility assay
[2] = system: A2780; assay: Cytotoxicity against human A2780 cells; type: functional

Row | Activity [1] | SMILES | Activity [2] [µM]
1 | inactive | CC(C)=C/C=C/C(C)=C/C=C/C(C)=C1\C(=O)C[C@H]2[C@@]3(C)CC[C@@H](O)[C@](C)(C(=O)O)[C@@H]3CC[C@]12C [STELLETTIN K] | 0.28
2 | 8% | CC(C)=C/C=C/C(C)=C/C=C/C(C)=C1\C(=O)C[C@H]2[C@@]3(C)CC[C@@H](O)[C@](C)(CO)[C@@H]3CC[C@]12C [STELLETTIN J] | 1.2
3 | 29% | CC(=O)O[C@@H]1CC[C@@]2(C)[C@@H](CC[C@]3(C)/C(=C(C)/C=C/C=C(\C)C(CC=C(C)C)O[C@@H]4OC[C@@H](O)[C@@H](O)[C@H]4O)C(=O)C[C@@H]23)C1(C)C (some centres undefined) [STELLIFERIN RIBOSIDE] | 7.3
4 | 23% | CC(=O)OC[C@]1(C)[C@@H]2CC[C@]3(C)/C(=C(C)/C=C/C=C(\C)[C@H](CC=C(C)C)OC(C)=O)C(=O)C[C@H]3[C@@]2(C)CC[C@H]1OC(C)=O | 27
5 | – | Cc1c2oc3c(C)ccc(C(=O)N[C@@H]4C(=O)N[C@H](C(C)C)C(=O)N5CCC[C@H]5C(=O)N(C)CC(=O)N(C)[C@@H](C(C)C)C(=O)O[C@@H]4C)c3nc-2c(C(=O)N[C@@H]2C(=O)N[C@H](C(C)C)C(=O)N3CCC[C@H]3C(=O)N(C)CC(=O)N(C)[C@@H](C(C)C)C(=O)O[C@@H]2C)c(N)c1=O [DACTINOMYCIN] (I: T[dV]P[Sar][NMeV] / II: T[dV]P[Sar][NMeV]; ester I:1-I:C, II:1-II:C; linker I:N-II:N via Actinocin(1to9)) | 0.0017
